Test results from EP2125859B1, “ESTRATRIENE DERIVATIVES AND THEIR USES AS 17BETA-HYDROXYSTEROID DEHYDROGENASE INHIBITORS” (Abbott Products GmbH, priority 2006, dated 2008).

Molecular target: T1, recombinant human 17β-HSD1 (Homo sapiens, UniProt P14061)
T1 construct: made in house; host or cells: Sf9 insect cells (baculovirus, Bac to Bac Expression System)
T1 sequence (P14061 1-328): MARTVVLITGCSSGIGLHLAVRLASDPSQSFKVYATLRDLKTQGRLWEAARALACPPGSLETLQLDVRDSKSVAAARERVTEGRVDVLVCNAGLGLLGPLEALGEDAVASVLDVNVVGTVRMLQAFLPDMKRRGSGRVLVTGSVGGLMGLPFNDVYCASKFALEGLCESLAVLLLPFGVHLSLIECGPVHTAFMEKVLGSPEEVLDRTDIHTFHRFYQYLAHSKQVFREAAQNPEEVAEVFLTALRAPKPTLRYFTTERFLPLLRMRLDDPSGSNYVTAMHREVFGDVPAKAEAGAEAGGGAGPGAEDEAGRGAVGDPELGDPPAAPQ
Assay: Inhibition of recombinant human 17β-HSD1 (HPLC assay, conversion of 3H-estrone to estradiol)
Type: biochemical
Details: 0.5 h, 30 nM 3H-estrone, 1 mM NADPH, 30 min at RT, read-out: inhibition of rec. 17β-HSD1; for inhibition at 0.1 µM: 100 nM inhibitor; for inhibition at 1 µM: 1 µM inhibitor
Method: Inhibition of the 17β-hydroxysteroid dehydrogenase type 1 enzyme 17β-HSD1 purification: Recombinant baculovirus was generated by the "Bac to Bac Expression System" (Invitrogen). Recombinant bacmid was transfected to Sf9 insect cells using "Cellfectin Reagent" (Invitrogen). 60h later cells were harvested; the microsomal fraction was isolated as described by Puranen et al. (1994). Aliquots were stored frozen until determination of enzymatic activity.
Assay - Inhibition of recombinant human 17β-HSD1: Recombinant protein (0.1 µg/ml) was incubated in 20 mM KH2PO4 pH 7.4 with 30 nM 3H-estrone and 1 mM NADPH for 30 min at RT, in the presence of potential inhibitors at concentrations of 1 µM or 0.1 µM. Inhibitor stock solutions were prepared in DMSO. Final concentration of DMSO was adjusted to 1 % in all samples. The enzyme reaction was stopped by addition of 10 % trichloroacetic acid (final concentration). Samples were centrifuged in a microtiter plate at 4000 rpm for 10 min. Supernatants were applied to reverse phase HPLC on a Waters Symmetry C18 column, equipped with a Waters Sentry Guard column. Isocratic HPLC runs were performed at RT at a flow rate of 1 ml/min of acetonitrile:water 48:52 as running solvent. Radioactivity was monitored in the eluate by a Packard Flow Scintillation Analyzer. Total radioactivity for estrone and estradiol were determined in each sample and percent conversion of estrone to estradiol was calculated according to the following formula: [formula] [formula]
The values "% inhibition" were determined for exemplified compounds, and the results are summarized in table 4 (for 17β-HSD1). table 4: HSD 1 inhibition values in % of selected compounds of formula I

Compound | inhibition at 0.1 µM | inhibition at 1 µM
C[C@]12CC[C@@H]3c4ccc(O)cc4CC[C@H]3[C@@H]1[C@H](CCn1cc(CCc3ccccc3)nn1)CC2=O [Compound 1, 3-Hydroxy-15ß-[2-(4-phenethyl-[1,2,3]triazol-1-yl)-ethyl]-estra-1,3,5(10)-trien-17-one] | 92% | 98%
C[C@]12CC[C@@H]3c4ccc(O)cc4CC[C@H]3[C@@H]1[C@H](CCn1cc(-c3cccc(O)c3)nn1)CC2=O [Compound 2, 3-Hydroxy-15β-{2-[4-(3-hydroxy-phenyl)-[1,2,3]triazol-1-yl]-ethyl}-estra-1,3,5(10)-trien-17-one] | 88% | 97%
C[C@]12CC[C@@H]3c4ccc(O)cc4CC[C@H]3[C@@H]1[C@H](CCn1cc(-c3ccc(F)cc3F)nn1)CC2=O [Compound 3, 3-Hydroxy-15β-{2-[4-(2,4-difluoro-phenyl)-[1,2,3]triazol-1-yl]-ethyl}-estra-1,3,5(10)-trien-17-one] | 86% | 96%
C[C@]12CC[C@@H]3c4ccc(O)cc4CC[C@H]3[C@@H]1[C@H](CCn1cc(-c3cccc(C(F)(F)F)c3)nn1)CC2=O [Compound 9, 3-Hydroxy-15β-{2-[4-(3-trifluoromethyl-phenyl)-[1,2,3]triazol-1-yl]-ethyl}-estra-1,3,5(10)-trien-17-one] | 84% | 93%
C[C@]12CC[C@@H]3c4ccc(O)cc4CC[C@H]3[C@@H]1[C@H](CCn1cc(-c3ccc(C(F)(F)F)cc3)nn1)CC2=O [Compound 10, 3-Hydroxy-15β-{2-[4-(4-trifluoromethyl-phenyl)-[1,2,3]triazol-1-yl]-ethyl}-estra-1,3,5(10)-trien-17-one] | 83% | 93%
COc1ccc(-c2cn(CC[C@@H]3CC(=O)[C@@]4(C)CC[C@@H]5c6ccc(O)cc6CC[C@H]5[C@H]34)nn2)cc1 [Compound 11, 3-Hydroxy-15β-{2-[4-(4-methoxy-phenyl)-[1,2,3]triazol-1-yl]-ethyl}-estra-1,3,5(10)-trien-17-one] | 75% | 93%
C[C@]12CC[C@@H]3c4ccc(O)cc4CC[C@H]3[C@@H]1[C@H](CCn1cc(-c3ccc(OC(F)(F)F)cc3)nn1)CC2=O [Compound 13, 3-Hydroxy-15β-{2-[4-(4-trifluoromethoxy-phenyl)-[1,2,3]triazol-1-yl]-ethyl}-estra-1,3,5(10)-trien-17-one] | 83% | 92%
C[C@]12CC[C@@H]3c4ccc(O)cc4CC[C@H]3[C@@H]1[C@H](CCCn1cc(-c3cc(F)cc(F)c3)nn1)CC2=O [Compound 18, 3-Hydroxy-15ß-{3-[4-(3,5-Difluoro-phenyl)-[1,2,3]triazol-1-yl]-propyl}-estra-1,3,5(10)-trien-17-one] | 64% | 88%
C[C@]12CC[C@@H]3c4ccc(O)cc4CC[C@H]3[C@@H]1[C@H](CCCn1cc(CC3CCCCC3)nn1)CC2=O [Compound 21, 3-Hydroxy-15β-[3-(4-cyclohexylmethyl-[1,2,3]triazol-1-yl)-propyl]-estra-1,3,5(10)-trien-17-one] | 50% | 86%
C[C@]12CC[C@@H]3c4ccc(O)cc4CC[C@H]3[C@@H]1[C@H](CCCn1cc(-c3ccc(F)cc3F)nn1)CC2=O [Compound 28, 3-Hydroxy-15β-{3-[4-(2,4-difluoro-phenyl)-[1,2,3]triazol-1-yl]-propyl}-estra-1,3,5(10)-trien-17-one] | 40% | 83%
CC(C)CCc1cn(CCC[C@H]2CC(=O)[C@@]3(C)CC[C@@H]4c5ccc(O)cc5CC[C@H]4[C@H]23)nn1 [Compound 30, 3-hydroxy-15-[3-(4-isopentyl-[1,2,3]triazol-1-yl)-propyl]-13-methyl-6,7,8,9,11,12,13,14,15,16-decahydro-cyclopenta[a]phenanthren-17-one] | 25% | 82%
